Measurements: patent US7338968B2, “Thiadiazoles AS CXC- and CC- chemokine receptor ligands” (Schering Corporation, priority 2003, dated 2008)

Columns and labels:
hCXCR2 = biological target: T1, hCXCR2 (Homo sapiens, UniProt P25025); assay: CXCR2 SPA assay ([125I]-IL-8 binding, hCXCR2-CHO membranes; incl. alternative 50 μl and 200 μl protocols)
T1 construct: purchased Biosignal / Biosignal Packard; host or cells: CHO cells (membranes)
T1 sequence (P25025 1-360): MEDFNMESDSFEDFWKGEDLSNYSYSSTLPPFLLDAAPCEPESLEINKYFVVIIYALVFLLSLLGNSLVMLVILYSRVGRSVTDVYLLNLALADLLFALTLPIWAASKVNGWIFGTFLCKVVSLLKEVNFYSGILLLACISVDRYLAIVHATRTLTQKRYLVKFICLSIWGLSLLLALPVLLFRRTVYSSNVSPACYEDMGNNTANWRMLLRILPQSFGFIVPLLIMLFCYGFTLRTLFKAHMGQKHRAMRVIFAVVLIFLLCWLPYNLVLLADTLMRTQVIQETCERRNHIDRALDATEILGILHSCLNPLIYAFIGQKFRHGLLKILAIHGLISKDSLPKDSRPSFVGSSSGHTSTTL
Procedure: For each well of a 96 well plate, a reaction mixture of 4 μg hCXCR2-CHO overexpressing membranes (Biosignal) and 200 μg/well WGA-SPA beads (Amersham) in 100 μl was prepared in CXCR2 assay buffer (25 mM HEPES, pH 7.4, 2 mM CaCl2, 1 mM MgCl2). A 0.4 nM stock of ligand, [^125I]-IL-8 (NEN), was prepared in the CXCR2 assay buffer. 20× stock solutions of test compounds were prepared in DMSO (Sigma). A 6× stock solution of GRO-α (R&D) was prepared in CXCR2 assay buffer. […]
For each 50 μl reaction, a working stock of 0.031 μg/μl hCXCR2-CHO over-expressing membranes with a specific activity of 0.4 pmol/mg (Biosignal Packard) and 2.5 μg/μl WGA-SPA beads (Perkin Elmer Life Sciences) was prepared in CXCR2 assay buffer (25 mM HEPES, pH 7.4, 2.0 mM CaCl2, 1 mM MgCl2) (Sigma). […] The assay plates were incubated for 2 hours before cpm/well were determined in a Microbeta Trilux counter (Perkin Elmer Life Sciences). IC50 values were quantified using nonlinear regression analysis in GraphPad Prism. […]
For each 200 μl reaction, a working stock of 0.02 μg/μl hCXCR2—CHO over-expressing membranes with a specific activity of 0.6 pmol/mg (Biosignal Packard) and 2 μg/μl WGA-SPA beads (Perkin Elmer Life Sciences) was prepared in CXCR2 assay buffer (25 mM HEPES, pH 7.4, 2.0 mM CaCl2, 1 mM MgCl2) (Sigma). […] IC50 values were quantified using nonlinear regression analysis in GraphPad Prism.

hCXCR1 = biological target: T2, hCXCR1 (Homo sapiens, UniProt P25024); assay: CXCR1 SPA assay ([125I]-IL-8 binding, hCXCR1-CHO membranes; incl. alternative Biosignal Packard and Euroscreen protocols)
T2 construct: purchased Biosignal / Biosignal Packard; alternatively Euroscreen; host or cells: CHO cells (membranes)
T2 sequence (P25024 1-350): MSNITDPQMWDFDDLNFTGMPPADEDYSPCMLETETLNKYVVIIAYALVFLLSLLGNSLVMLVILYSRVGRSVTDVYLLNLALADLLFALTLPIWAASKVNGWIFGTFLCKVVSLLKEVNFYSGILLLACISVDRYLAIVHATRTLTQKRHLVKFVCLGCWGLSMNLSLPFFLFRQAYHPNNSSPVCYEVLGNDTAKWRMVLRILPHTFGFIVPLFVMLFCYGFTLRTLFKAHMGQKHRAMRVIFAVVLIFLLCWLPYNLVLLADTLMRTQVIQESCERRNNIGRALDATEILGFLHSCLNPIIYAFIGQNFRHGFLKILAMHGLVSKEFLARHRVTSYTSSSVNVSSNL
Procedure: For each well of a 96 well plate, a reaction mixture of 10 μg hCXCR1-CHO overexpressing membranes (Biosignal) and 200 μg/well WGA-SPA beads (Amersham) in 100 μl was prepared in CXCR1 assay buffer (25 mM HEPES, pH 7.8, 2 mM CaCl2, 1 mM MgCl2, 125 mM NaCl, 0.1% BSA) (Sigma). A 0.4 nM stock of ligand, [125I]-IL-8 (NEN) was prepared in the CXCR1 assay buffer. 20× stock solutions of test compounds were prepared in DMSO (Sigma). […] The above solutions were added to a 96-well assay plate (PerkinElmer) as follows: 10 μl test compound or DMSO, 40 μl CXCR1 assay buffer or IL-8 stock, 100 μl of reaction mixture, 50 μl of ligand stock (Final [Ligand]=0.1 nM).
For each 50 μl reaction, a working stock of 0.25 μg/μl hCXCR1-CHO over-expressing membranes with a specific activity of 0.05 pmol/mg (Biosignal Packard) and 25 μg/μl WGA-SPA beads (Perkin Elmer Life Sciences) was prepared in CXCR1 assay buffer (25 mM HEPES, pH 7.8, 0.1 mM CaCl2, 1 mM MgCl2, 100 mM NaCl) (Sigma). This mixture was incubated on ice for 30 minutes and then centrifuged at 2500 rpm for 5 minutes. The beads and membranes were resuspended in CXCR1 assay buffer to the same concentrations as in the original mixture. […] The assay plates were incubated for 4 hours before cpm/well were determined in a Microbeta Trilux counter (Perkin Elmer Life Sciences). IC50 values were quantified using nonlinear regression analysis in GraphPad Prism. […]

CCR7 = biological target: T3, CCR7 (Homo sapiens, UniProt P32248); assay: CCR7 [35S]GTPγS exchange assay (SPA, Ba/F3-CCR7 membranes, 2 nM MIP-3); assay type: biochemical
T3 construct: expressed in transfected cells; host or cells: Ba/F3 cells (membranes prepared in house)
T3 sequence (P32248 25-378): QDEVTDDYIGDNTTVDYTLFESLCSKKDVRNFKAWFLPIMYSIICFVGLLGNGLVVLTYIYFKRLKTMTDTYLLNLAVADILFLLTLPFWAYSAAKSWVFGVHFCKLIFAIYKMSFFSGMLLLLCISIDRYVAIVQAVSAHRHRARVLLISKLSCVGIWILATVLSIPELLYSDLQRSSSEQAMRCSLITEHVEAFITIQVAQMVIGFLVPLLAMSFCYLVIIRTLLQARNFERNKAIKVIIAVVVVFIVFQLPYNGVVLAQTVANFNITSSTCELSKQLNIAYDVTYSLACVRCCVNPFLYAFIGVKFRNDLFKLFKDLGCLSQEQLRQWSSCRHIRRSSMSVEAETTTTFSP
Procedure: CCR7 Membrane Preparation.
Ba/F3-CCR7 membranes were prepared as previously described (Hipkin et al., J. Biol. Chem., 272, 1997, 13869-76). Cells were pelleted by centrifugation, incubated in homogenization buffer (10 mM Tris-HCl, 5 mM EDTA, 3 mM EGTA, pH 7.6) and 1 μM PMSF for 30 min. on ice. The cells were then lysed with a Dounce homogenizer using stirrer type RZR3 polytron homogenizer (Caframo, Wiarton, Ont.) with 12 strokes at 900 RPM. The intact cells and nuclei were removed by centrifugation at 500×g for 5 min. The cell membranes in the supernatant were then pelleted by centrifugation at 100,000×g for 30 min. The membranes were then resuspended in glygly buffer (20 mM glycylglycine, 1 mM MgCl2, 250 mM sucrose, pH 7.2), aliquoted, quick frozen and stored at −80° C.
CCR7 [^35S]GTPγS Exchange Assay.
The exchange of guanosine 5′-[γ-^35S]triphospate ([^35S]GTPγS, triethylammonium salt; specific activity=1250 Ci/mmol; NEN Boston, Mass.) was measured using a scintillation proximity assay (SPA) as previously described (Cox, et. al., Mol. Pharmacol., 59, 2001, 707-15). […] Membrane-bound [^35S]GTPγS was measured using a 1450 Microbeta Trilux counter (Wallac, Gaithersburg, Md.).

Row | Ki (hCXCR2) | Ki (hCXCR1) | EC50 (CCR7) | Compound
1 | 28 nM | 808 nM | – | CC[C@@H](Nc1nsnc1Nc1cccc(C(=O)N(C)C)c1O)c1cc(C(C)C)co1 [Example 1]
2 | – | – | 880 nM | Cc1ccc([C@H](Nc2nsnc2Nc2cccc(C(=O)N(C)C)c2O)C(C)C)o1 [Example 3]
3 | 14 nM | – | 22 nM | Cc1ccc([C@H](Nc2nsnc2Nc2cccc(C(=O)N(C)C)c2O)C(C)(C)C)o1 [Example 6]
